Values joined by “and” are separate entries in the source; they are usually repeats but may differ in a detail not shown here. Identical values can stand only once.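 Step 1: Grow cells in 96-well plates. Step 2: Expose to compound for 48 hours at 5 concentrations. Step 3: Interpolate endpoints linearly; if unreached, use highest concentration. Here, GI50 denotes the concentration required for 50% inhibition of growth. Definition used: TGI = concentration required for complete inhibition of growth.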
How the values were obtained:
Test in all cases: NCI anticancer screen, dose series, 48 h
SF-295 CNS = system: SF-295 CNS
OVCAR-3 ovarian = system: OVCAR-3 ovarian
UACC-257 melanoma = system: UACC-257 melanoma
LXFL 529 NSCLC = system: LXFL 529 NSCLC
T-47D breast = system: T-47D breast
BT-549 breast = system: BT-549 breast
DLD-1 colon = system: DLD-1 colon
SK-MEL-28 melanoma = system: SK-MEL-28 melanoma
786-0 renal = system: 786-0 renal
NCI-H23 lung = system: NCI-H23 lung
M19-MEL melanoma = system: M19-MEL melanoma

Row | Structure (SMILES) | TGI (SF-295 CNS) | TGI (OVCAR-3 ovarian) | TGI (UACC-257 melanoma) | TGI (LXFL 529 NSCLC) | GI50 (T-47D breast) | TGI (T-47D breast) | GI50 (BT-549 breast) | TGI (BT-549 breast) | TGI (DLD-1 colon) | TGI (SK-MEL-28 melanoma) | TGI (786-0 renal) | TGI (NCI-H23 lung) | TGI (M19-MEL melanoma) | GI50 (SF-295 CNS) | GI50 (UACC-257 melanoma) | GI50 (SK-MEL-28 melanoma) | GI50 (786-0 renal) | GI50 (NCI-H23 lung)
1 | CC1=C(CO)C(=O)O[C@@H]([C@@H](C)[C@H]2CC[C@H]3[C@@H]4C[C@H]5O[C@]56[C@@H](O)C=CC(=O)[C@]6(C)[C@H]4CC[C@]23C)C1 | 3 µM | 0.792 µM | 2.32 µM | 1.26 µM | 0.5 µM | 2.5 µM | 0.79 µM | 2.15 µM | 1.03 µM | 2.29 µM | 1.73 µM | 0.81 µM | 3.01 µM |  |  |  |  | 
2 | Cc1ccc2oc(=O)c3c(O)c4cccc(OC5OC(C)C6O[C@@H](c7ccccc7)OC6C5OC5OC(C)C(O)C(O)C5O)c4c4oc(=O)c1c2c34 (some centres undefined) | 0.523 µM and 1.56 µM | 3.96 µM | 1.82 µM and 2.12 µM | 6.5 µM |  | 1.23 µM |  |  | 6.08 µM | 1.88 µM and 2.01 µM | 1.09 µM and 1.91 µM | 0.276 µM | 3.43 µM | 0.0449 µM | 0.309 µM | 0.331 µM | 0.0447 µM | 0.0307 µM
3 | O=C1CC(C2(O)C(=O)Nc3ccc([N+](=O)[O-])cc32)c2ccccc21 (centres undefined) | > 100 µM | 67.7 µM | > 100 µM | 76.2 µM |  |  |  |  | > 100 µM | 62 µM | 36.6 µM | 71 µM | 78.7 µM |  |  |  |  | 
4 | COc1cc2c(cc1OC)C(C(CBr)CBr)N(C1CCCC1)CC2 (centres undefined) | > 100 µM | > 100 µM | > 100 µM | > 100 µM |  |  |  |  | > 100 µM | > 100 µM | > 100 µM | > 100 µM | > 100 µM |  |  |  |  | 
5 | O=C(c1ccccc1)c1nnn(Cc2ccccc2Cn2nnc(C(=O)c3ccccc3)c2C(=O)c2ccccc2)c1C(=O)c1ccccc1 | > 100 µM | > 100 µM | > 100 µM | > 100 µM |  |  |  |  | > 100 µM | > 100 µM | > 100 µM | > 100 µM | > 100 µM |  |  |  |  | 
6 | CC(C)N(C(=O)C12C3C4C5(C(=O)O)C(C1C35I)C42C(=O)O)C(C)C (centres undefined) | > 100 µM | > 100 µM | > 100 µM | > 100 µM |  |  |  |  | > 100 µM | > 100 µM | > 100 µM | > 100 µM | > 100 µM |  |  |  |  | 
